Assay results published in a melting point compilation (Tetko et al.; mined from patent text by program, amines drawn as free bases though some values may be those of a salt).
Residues, ends and D or L forms follow the SMILES beside them. *: point of attachment. Tos = Cc1ccc(S(=O)(=O)*)cc1

Compound | melting point [°C]
CC(=O)N(CC(C)C)C1NC(=O)N(c2ccc(C(=O)O)cc2)C(=O)N1 | 191 to 193
COc1cc(CC(C)=O)c([N+](=O)[O-])cc1Cl | 114 to 115
N#Cc1ccc(N(Cc2ccc(O)c(Br)c2)n2cnnc2)cc1-c1ccoc1 | 200 to 201
CCN(CC)Cc1nc(-c2ncn3c2[C@@H]2CCN2C(=O)c2c(Br)cccc2-3)no1 | 206 to 209
CC(O)(c1nc(-c2ccc(F)cc2)c(-c2ccc(F)cc2)[nH]1)C(F)(F)F (stereo unspecified) | 191 to 192
O=C(O)Cc1c(C(=O)O)c2cc(Oc3ccc(C(F)(F)F)cc3)ccc2n1-c1cccc(Cl)c1 | 236 to 238
COc1ccc(S(N)(=O)=O)cc1C(=O)C(C)N=[N+]=[N-] (stereo unspecified) | 113 to 114
O=C1NC(=O)c2ccccc2/C1=C/Nc1ccc(CCN2CCCC2)cc1 | 224 to 225
CNS(=O)(=O)c1ccccc1Nc1nc(Nc2ccc3c(c2)CCCC(=O)N3CC(=O)OC)ncc1Cl | 237 to 239
CC(C)CCCC(C)C1CCC2C3CCC4CC(NC(=O)C(COCc5ccccc5)NC(=O)OC(C)(C)C)CCC4(C)C3CCC12C (stereo unspecified) | 55 to 67
CCCCOC(=O)C(NC(=O)OC(C)(C)C)c1c[nH]c2ccccc12 (stereo unspecified) | 127 to 128
CC(C)(C)OC(=O)NCc1nc(C(=O)O)cs1 | 185
O=c1[nH]c2sccc2c(=O)n1CCN1CCC(=C(c2ccc(F)cc2)c2ccc(F)cc2)CC1 | 205 to 207
CC(C)CC(C(=O)O)c1ccc(-c2ccc(C(F)(F)F)cc2)c(OCC2CC2)c1 (stereo unspecified) | 142 to 143
O=C(Nc1ccc2ccc(Cl)nc2n1)C1CCC1 | 192
N#CC1CN1C(=O)NC(=O)C(Cl)Cl (stereo unspecified) | 164 to 166
O=C1C(=O)N2CCCc3cc(Cl)cc1c32 | 188 to 189
CCSc1cn(C)cc(-c2ccc(Cl)c(C(F)(F)F)c2)c1=O | 115 to 116
O=[N+]([O-])c1c(O)ccnc1O | > 230
COC(=O)c1cc(-n2c(Cl)nc(C(F)(F)F)cc2=O)c(F)cc1Cl | 89 to 91
Nc1nc2ccc(SSc3ccc4nc(N)[nH]c4c3)cc2[nH]1 | 245
CCc1cc2c(cc1CC)C(=O)CCC2 | 93
COc1ccc(CCNC(=O)OC(C)(C)C)cc1O | 100 to 101

Compound | melting point [°C]
CCOC(=O)C1=C(C)N(C)C(C)=C(C(=O)OCC)C1c1ccccc1/C=C/C(=O)OC(C)(C)C | 149 to 151
CCNC(=O)NC1(c2ccc(C(C)C)cc2OC)C(=O)c2ccccc2C1=O | 267 to 269
O=Cc1ccc(OC2CCCC2)c(Oc2ccc([N+](=O)[O-])cc2Br)c1 | 92 to 94
CC(C)OC1CCC(=O)N1S(=O)(=O)C=Cc1ccc([N+](=O)[O-])cc1 (stereo unspecified) | 178 to 179
CCCCCCCCCCCCCCCCCNC(=O)OC1CCCOC1COCC(O)CCCCCCO (stereo unspecified) | 67 to 68
CCOC(=O)N1CCC(CCCOc2ccc(C3=NCCCO3)cc2)CC1 | 128
COc1cc(OCCCN2CCOCC2)c(C=CC(=O)c2ccc(S(N)(=O)=O)cc2)cc1-c1cccs1 | 193 to 196
NCCOc1ccc(O)cc1 | 175
CCCN(C=Nc1ccc2nnc(-c3ncc([N+](=O)[O-])n3C)n2n1)CCC | 155 to 157
CCCC(=O)OCn1cc(F)c(=O)[nH]c1=O | 96 to 98
COc1cccc(C(=O)Nc2ccc(-n3nc(C(F)(F)F)cc3C(F)(F)F)cc2)c1 | 169 to 172
CCn1nc(OCCCc2ccc(OC(C)C)cc2Oc2ncc(C(F)(F)F)cc2Cl)cc1CCC(=O)O | 73 to 74
Cc1ccc(S(=O)(=O)N2CCC[C@H]2C(=O)N[C@@H](CC(=O)O)C(=O)O)cc1 (Tos-Pro-Asp-OH) | 153 to 155
COc1cc2c(Nc3cc(O)c(Cl)cc3F)c(C#N)cnc2c(OC)c1OC | 223 to 225
COc1nc(NC(=O)NS(=O)(=O)c2ccccc2OC(F)F)nc(NC(C)(C)C)n1 | 213 to 214
CC(C)OC(=O)c1cc(-n2c(=O)[nH]c3c(c2=O)CCC3)c(F)cc1Br | 214 to 216
COC(=O)c1cc(F)c(F)c2c1NC(C)C2 (stereo unspecified) | 50 to 52
CC(C)n1cc2c3c(cccc31)C1CC(C(=O)NCCc3c[nH]cn3)CN(C)C1C2 (stereo unspecified) | 83 to 86
O=C(O)Cc1ccc(OCCCCl)cc1 | 89 to 91
COCC(=O)Nc1cc(C(=O)OC)c(O)c2ncc(Cc3ccc(F)cc3)cc12 | 154 to 155
O=C(OCC(Cl)(Cl)Cl)c1ccc2c(c1)C(C(Cl)(Cl)Cl)OC(C(Cl)(Cl)Cl)O2 (stereo unspecified) | 129 to 130
N#CSCC(Cl)=C(Cl)CSC#N | 166 to 169
COc1cc(Nc2c(C#N)cnc3cc4c(cc23)ncn4CCN2CCOCC2)c(C)cc1Cl | 246 to 248

Now from value to molecule:

melting point [°C] | Compound
79 to 81 | Clc1cccc(C2CCN(CCCCOc3ccc4scnc4c3)CC2)c1Cl
193 to 205 | Fc1ccc(-c2cc3ncnc(Nc4ccc5[nH]ccc5c4)c3s2)cc1
83 to 85 | CN(C)CCOc1ccc(C2(c3ccccc3)OCCC2c2ccccc2)cc1 (stereo unspecified)
214 to 215 | CN1C(=O)C2(COc3cc4c(cc32)OCCO4)c2c(C(=O)NCc3ccccn3)cccc21 (stereo unspecified)
140 to 143 | O=S1N=C(NCCCOc2cccc(CN3CCCCC3)c2)C(NCc2ccccn2)=N1 (stereo unspecified)
57 to 59 | COC(=O)C(=O)c1ccc(OCCCCOc2ccccc2)cc1
169 to 173 | CC(C)(NC(=O)C(CS)NC(=O)c1ccccc1)c1ccccc1 (stereo unspecified)
136 to 138 | Clc1ncnc2oc(-c3ccccc3)cc12
168 | Cc1cc(N)cc(C)c1C(=O)Cc1ccccc1C(F)(F)F
145 to 146 | O=C(C=Cc1c(-c2ccccc2)nn2ccccc12)N1CCCC[C@@H]1CCO
75 to 77 | COc1cc2c(Oc3ccc4[nH]cc(C)c4c3)ncnc2cc1OCCCN1CCCC1
150 to 155 | COc1c(C)cc(N)c(CS(=O)c2nc3ccccc3[nH]2)c1C (stereo unspecified)
158 to 160 | O=C(O)C(O)c1ccc(-c2ccc(Cl)cc2)s1 (stereo unspecified)
165 to 167 | CC(C)n1nc(-c2cc(C(=O)NCCO)cnc2-c2ccccc2)ccc1=O
162 to 163 | N#CC(c1ccc(Cl)cc1)c1c(Cl)cc(NN=Cc2ccccc2)cc1Cl (stereo unspecified)
171 to 173 | CC(C)(C)c1cc(NC(=O)Nc2cccc(Cl)c2Cl)c(-c2ccccc2)s1
133 to 134 | N#CCCNC(=O)c1cccc(-c2cccc3nn(Cc4ccc(F)cc4)cc23)c1
292 to 295 | O=C(O)C1Cc2c(c(Cl)cc3c(=O)c4ccccc4oc23)O1 (stereo unspecified)
164 to 166 | Cn1cc(-c2ccccc2)c(=O)c(-c2ccc(C(F)(F)F)cc2)c1
153 | Cc1nc(NC(=O)C(c2ccccc2)c2ccccc2)no1
139 to 141 | c1ccc2c(c1)Cc1ccccc1N1CCCN=C21
33 to 34 | ClCCCSc1nnnn1-c1ccccc1
88 to 90 | O=C(O)c1ccccc1CCc1cccc(Br)c1
152 to 155 | O=c1ccc([N+](=O)[O-])cn1[C@@H]1c2ccccc2OCC[C@H]1O (relative stereo)
135 to 136 | O=C(c1ccccc1)c1nc(-c2ccncc2)cs1
